Where two headings read alike, the source gives them in different places.
What was measured:
human MRP2 [1] = target: T1, human MRP2 (Homo sapiens, UniProt Q92887)
Text: v=Vmax[S]^h/Km^h+[S]^h (2)

[2] = target: T2, bovine serum albumin (BSA) (Bos taurus, UniProt P02769); experiment: Substrate binding to BSA, rapid equilibrium dialysis (RED); type: in vitro ADME; details: for fu (± SD): 37°C, 7 h, n = 3
T2 construct: purchased Sigma-Aldrich (St. Louis, MO)
Text: The fraction of unbound substrate in the presence of BSA was studied with the rapid equilibrium dialysis (RED) device (Thermo Scientific, Waltham, MA). In the RED system, two chambers in a well are separated with dialysis membrane. The transporter substrate (CDCF, E217βG or LY) was placed in the donor chamber in assay buffer with control membrane vesicles in the presence or absence of BSA to mimic the VT assay conditions. The final concentrations of BSA was 0.1% or 1.0%. Plain assay buffer was pipetted into the receiver chambers of all wells until the liquid level of both chambers was equal. […] Samples were incubated at 37°C on an orbital shaker. After 7 hour incubation, a small aliquot was collected from each receiver chamber for analysis. The relative fraction of unbound substrate (fu) was calculated as the ratio of concentrations in the receiver chambers from the samples with and without BSA.
Acetonitrile and phosphate buffers were used as mobile phase and flow rate was 0.5 ml/min.

UGT2A1 = tested on: UGT2A1; design: method as in PMID 23372764; details: cited from earlier work
UGT1A7 = tested on: UGT1A7; design: method as in PMID 23372764; details: cited from earlier work
UGT2B7 = details: cited from earlier work
human BCRP [3] = target: T3, human BCRP (Homo sapiens, UniProt Q9UNQ0); experiment: Inhibition of LY uptake into BCRP vesicles by oleic acid (VT assay)
T3 sequence (Q9UNQ0 1-655): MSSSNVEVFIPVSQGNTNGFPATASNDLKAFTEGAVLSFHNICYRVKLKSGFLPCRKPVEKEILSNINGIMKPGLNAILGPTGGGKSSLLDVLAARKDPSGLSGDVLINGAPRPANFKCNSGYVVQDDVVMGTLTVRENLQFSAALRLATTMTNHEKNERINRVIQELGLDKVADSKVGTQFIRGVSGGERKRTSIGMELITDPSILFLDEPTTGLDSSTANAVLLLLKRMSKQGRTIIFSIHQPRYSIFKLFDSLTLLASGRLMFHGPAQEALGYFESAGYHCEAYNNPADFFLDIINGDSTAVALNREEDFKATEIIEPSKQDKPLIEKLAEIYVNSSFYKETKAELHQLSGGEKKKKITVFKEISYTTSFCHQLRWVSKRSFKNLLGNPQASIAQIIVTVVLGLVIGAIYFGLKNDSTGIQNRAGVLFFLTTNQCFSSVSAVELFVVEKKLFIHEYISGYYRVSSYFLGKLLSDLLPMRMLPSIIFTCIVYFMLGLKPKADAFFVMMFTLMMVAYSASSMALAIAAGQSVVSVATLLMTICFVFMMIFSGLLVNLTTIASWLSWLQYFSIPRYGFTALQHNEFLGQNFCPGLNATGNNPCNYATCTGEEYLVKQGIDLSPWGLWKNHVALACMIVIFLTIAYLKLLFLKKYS
Experimental: (§1) The modulation of MRP2 and BCRP uptake by fatty acid oleic acid was also studied with the VT assay. The assay was performed as above, but oleic acid was present at various concentrations. The probe concentration in these studies was 5 μM for CDCF and 50 μM for LY. Plain vehicle (70% ethanol) was used as a control.
(§2) The oleic acid concentration required for 50% inhibition (IC50), was calculated from the concentration-response data using four parameter logistic regression, Response=Responsemin+Responsemax−Responsemin/1+([I]/IC50)^h (3) where response is the control normalized ATP-dependent uptake (%), Responsemin and Responsemax represent the plateaus corresponding to minimal and maximal normalized uptake (%), [I] is the concentration of inhibitor (μM), IC50 is the inhibitor concentration required for a response half-way between minimal and maximal response (μM) and h is the Hill coefficient. The Responsemin term was constrained to be larger than zero, where zero indicates full abolishment of uptake.

BCRP [4] = tested on: BCRP; design: method as in PMID 22819932; details: Caco-2 cells, oleic acid > 1 mM; cited from earlier work
BCRP [5] = tested on: BCRP; design: method as in PMID 24342797; details: sandwich-cultured hepatocytes, oleic acid > 1 mM; cited from earlier work
human MRP2 [6] = target: T1, human MRP2; experiment: Inhibition of CDCF uptake into MRP2 vesicles by oleic acid (VT assay); details: 5 μM CDCF
Experimental: as §1, §2

[7] = tested on: CYPs, human liver microsomes; design: method as in PMID 18256202, PMID 21305272; details: cited from earlier work
human BCRP [8] = target: T3, human BCRP; details: BCRP vesicles; for increase in maximal LY uptake by BCRP: 0.1% BSA vs no BSA; for Km: cholesterol loaded, best fit value (± standard error)
Experimental: Sf9 cells were cultured in suspension in HyQ SFX-Insect MP medium (Thermo Fisher Scientific, Waltham, MA) supplemented with 5% fetal bovine serum. Cells were infected with recombinant baculovirus-DNA and harvested and washed with phosphate buffered saline (PBS) approximately 60 hours after infection. Membranes were prepared from the cells using a modification of the Chu et al. [30] method as described in detail in [29]. To form the vesicles, the suspension was passed 10 times through a LIPEX™ Extruder (Northern Lipids Inc., Burnaby, BC, Canada) or 20 times through a 27 gauge needle. Protein concentration was measured using the Bio-Rad protein assay (Bio-Rad Laboratories Inc., Hercules, CA). Vesicles were stored at -75°C at protein concentrations of 3.5–5 mg/ml.
To improve the dynamic range of the assay, BCRP membranes were loaded with cholesterol similarly to Telbisz et al. [31], by incubating the membranes on ice for 20 minutes in the presence of the water-soluble cholesterol complex at a total concentration of 2.5 mM cholesterol. Excess of the complex was removed by diluting the mixture and centrifugation at 100 000 g at + 4°C for 1 h 15 min. The remaining membrane pellet was resuspended in membrane buffer (50 mM Tris–HCl pH 7.0, 50 mM mannitol, 2 mM EGTA). The resulting cholesterol concentration in the vesicles was roughly 100 μg/mg total protein as measured using the Amplex Red Cholesterol kit (Life Technologies, Carlsbad, CA).
The assay was carried out as a modification of the PREDIVEZ™ Vesicular Transport Kit protocol (SOLVO Biotechnology, Szeged, Hungary). In short, vesicle stocks were thawed and diluted with assay buffer (40 mM MOPS–Tris pH 7.0, 60 mM KCl, 6 mM MgCl2). The substrate at various concentrations was added subsequently with 0.1% or 1.0% BSA (w/v), or an equivalent volume of deionized water for the control. […] The well plate was preincubated at 37°C for 5–10 minutes after which half of the samples were treated with prewarmed plain assay buffer (non-ATP control), and the other half with prewarmed Mg-ATP-solution (final concentration 4 mM). […] Transport was terminated with ice cold washing buffer (40 mM MOPS-Tris pH 7.0 and 70 mM KCl). Samples were quickly transferred to the MultiScreenHTS-FB Plate Glass fiber 1.0 μm / 0.65 μm Durapore filter plate (Millipore, Molsheim, France). Wells were immediately washed five times with 200 μl washing buffer and dried. 0.1 M sodium hydroxide was used to elute LY and CDCF, which were detected by fluorescence measurement.
ATP-dependent transport was calculated as the difference between uptake in the presence and absence of ATP. All assays were performed in triplicates on a 96-well plate. Curve fitting to the data was performed with GraphPad Prism 6.04 (GraphPad Software Inc., La Jolla, CA). Substrate data was fitted with the Michaelis-Menten equation v=Vmax[S]/Km+[S] (1) where v is the velocity of ATP-dependent transport, Vmax is the maximal transport velocity, [S] is the substrate concentration and Km is the Michaelis-Menten constant.

[9] = MRP2 vesicles, 0.1% BSA vs no BSA

T2 sequence (P02769 25-607): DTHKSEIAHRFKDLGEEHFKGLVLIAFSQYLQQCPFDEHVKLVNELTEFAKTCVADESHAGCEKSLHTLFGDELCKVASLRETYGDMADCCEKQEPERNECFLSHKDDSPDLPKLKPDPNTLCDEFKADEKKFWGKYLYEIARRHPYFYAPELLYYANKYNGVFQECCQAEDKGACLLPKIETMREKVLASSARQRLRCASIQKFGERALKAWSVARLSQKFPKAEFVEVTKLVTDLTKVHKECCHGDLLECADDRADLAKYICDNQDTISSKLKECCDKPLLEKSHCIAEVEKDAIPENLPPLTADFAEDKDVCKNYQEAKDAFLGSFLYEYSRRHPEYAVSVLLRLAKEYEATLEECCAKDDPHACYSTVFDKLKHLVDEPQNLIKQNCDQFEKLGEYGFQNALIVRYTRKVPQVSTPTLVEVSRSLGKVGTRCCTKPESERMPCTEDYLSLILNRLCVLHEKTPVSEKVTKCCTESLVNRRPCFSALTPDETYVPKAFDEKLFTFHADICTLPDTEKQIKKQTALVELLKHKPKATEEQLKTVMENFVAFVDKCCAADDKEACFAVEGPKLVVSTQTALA
T1 sequence (Q92887 whole entry): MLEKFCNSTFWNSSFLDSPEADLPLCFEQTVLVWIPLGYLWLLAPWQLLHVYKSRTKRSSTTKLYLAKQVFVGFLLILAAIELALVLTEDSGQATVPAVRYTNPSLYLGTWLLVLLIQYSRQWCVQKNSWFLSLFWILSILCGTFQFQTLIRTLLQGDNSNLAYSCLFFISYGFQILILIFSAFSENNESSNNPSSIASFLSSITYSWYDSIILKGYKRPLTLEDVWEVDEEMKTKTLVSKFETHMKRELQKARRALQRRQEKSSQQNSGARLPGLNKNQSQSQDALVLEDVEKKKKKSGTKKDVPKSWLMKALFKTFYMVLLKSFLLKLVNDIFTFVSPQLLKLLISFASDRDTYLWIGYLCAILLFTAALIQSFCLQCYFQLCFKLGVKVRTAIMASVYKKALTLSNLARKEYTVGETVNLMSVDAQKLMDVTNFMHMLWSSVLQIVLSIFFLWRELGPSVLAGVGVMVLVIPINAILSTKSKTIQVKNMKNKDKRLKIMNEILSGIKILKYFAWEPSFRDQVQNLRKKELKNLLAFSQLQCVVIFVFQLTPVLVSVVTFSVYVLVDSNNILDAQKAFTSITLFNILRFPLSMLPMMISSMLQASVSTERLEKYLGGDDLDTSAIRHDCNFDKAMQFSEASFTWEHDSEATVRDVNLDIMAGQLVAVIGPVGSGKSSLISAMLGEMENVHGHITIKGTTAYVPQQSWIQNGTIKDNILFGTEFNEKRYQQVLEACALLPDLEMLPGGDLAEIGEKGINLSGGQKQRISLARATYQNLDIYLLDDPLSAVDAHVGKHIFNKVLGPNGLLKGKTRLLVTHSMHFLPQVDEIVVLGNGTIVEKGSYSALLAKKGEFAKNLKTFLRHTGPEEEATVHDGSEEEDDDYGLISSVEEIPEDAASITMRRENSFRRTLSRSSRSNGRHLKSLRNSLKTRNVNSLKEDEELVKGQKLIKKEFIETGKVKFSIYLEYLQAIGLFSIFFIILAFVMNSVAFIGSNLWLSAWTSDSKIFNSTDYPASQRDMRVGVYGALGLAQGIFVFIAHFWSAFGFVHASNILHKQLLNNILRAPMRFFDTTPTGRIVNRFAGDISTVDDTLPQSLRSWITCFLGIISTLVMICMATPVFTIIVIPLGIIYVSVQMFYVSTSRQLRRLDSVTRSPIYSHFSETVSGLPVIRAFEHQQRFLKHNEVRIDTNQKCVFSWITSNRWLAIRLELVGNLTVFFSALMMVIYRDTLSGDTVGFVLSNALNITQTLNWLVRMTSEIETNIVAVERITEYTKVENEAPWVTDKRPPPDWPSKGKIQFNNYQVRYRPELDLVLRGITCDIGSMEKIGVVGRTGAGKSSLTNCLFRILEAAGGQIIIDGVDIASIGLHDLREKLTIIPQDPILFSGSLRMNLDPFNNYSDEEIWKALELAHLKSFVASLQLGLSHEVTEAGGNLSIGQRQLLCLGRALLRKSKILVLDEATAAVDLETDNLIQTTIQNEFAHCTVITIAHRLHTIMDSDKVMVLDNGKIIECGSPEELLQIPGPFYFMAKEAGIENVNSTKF

Compound: 5(6)-carboxy-2’,7’-dichlorofluorescein [CDCF]
- increase of Vmax of uptake into MRP2 vesicles (human MRP2 [1]; 0.1% BSA vs no BSA): 2 fold
- increase of Km by BSA (human MRP2 [1]; [9]): ~63%
- increase of Vmax by BSA (human MRP2 [1]; [9]): roughly 110%
- Vmax in the presence of 0.1% BSA (human MRP2 [1]; MRP2 vesicles, Vmax in the absence of BSA set at 100%): 210.4 (± 21.1) %
- average fu ([2]; 0.1% BSA, average over concentrations): 0.94
- fu (± SD) ([2]; 0.1% BSA, substrate 1 μM): 0.92 (± 0.02)
- fu (± SD) ([2]; 0.1% BSA, substrate 5 μM): 0.94 (± 0.02)
- fu (± SD) ([2]; 0.1% BSA, substrate 50 μM): 0.96 (± 0.01)
- fu (± SD) ([2]; 1.0% BSA, substrate 5 μM): 0.43 (± 0.02)
- fu (± SD) ([2]; 1.0% BSA, substrate 50 μM): 0.53 (± 0.02)
- fu (± SD) ([2]; 1.0% BSA, substrate 200 μM): 0.73 (± 0.03)

Compound: Oc1ccc2cc[nH]c2c1 [6-hydroxyindole]
- decrease in Km caused by albumin (UGT2A1): > 20 fold

Compound: C[C@]12CC[C@@H]3c4ccc(O)cc4CC[C@H]3[C@@H]1CC[C@@H]2O[C@@H]1O[C@H](C(=O)O)[C@@H](O)[C@H](O)[C@H]1O [E217βG]
- increase of Km by BSA (human MRP2 [1]; [9]): 36%
- fu (± SD) ([2]; 0.1% BSA, substrate 15 μM): 0.96 (± 0.04)
- fu (± SD) ([2]; 0.1% BSA, substrate 50 μM): 1.00 (± 0.03)
- fu (± SD) ([2]; 0.1% BSA, substrate 150 μM): 0.98 (± 0.04)

Compound: CCN(CC)C(=O)/C(C#N)=C/c1cc(O)c(O)c([N+](=O)[O-])c1 [entacapone]
- increase in Vmax caused by albumin (UGT1A7): up to 7 fold

Compound: Nc1nnc(-c2cccc(Cl)c2Cl)c(N)n1 [lamotrigine]
- increase in affinity caused by albumin (UGT2B7): 7 fold

Compound: CCCCCCCC/C=C\CCCCCCCC(=O)O [oleic acid]
- IC50 (human BCRP [3]): 28.2 µM
- effect on BCRP-mediated transport of mitoxantrone (BCRP [4]): decrease BCRP-mediated transport of mitoxantrone
- effect on BCRP-mediated transport of rosuvastatin (BCRP [5]): decrease BCRP-mediated transport
- effect on substrate uptake (human MRP2 [6]): decreased the uptake of substrates

Compound: CC(=O)O[C@H]1C(=O)[C@@]2(C)[C@H]([C@H](OC(=O)c3ccccc3)[C@]3(O)C[C@H](OC(=O)[C@H](O)[C@@H](NC(=O)c4ccccc4)c4ccccc4)C(C)=C1C3(C)C)[C@]1(OC(C)=O)CO[C@@H]1C[C@@H]2O [paclitaxel]
- decrease in Km of hydroxylation caused by albumin [7]: 3 fold

Compound: O=C1NC(=O)C(c2ccccc2)(c2ccccc2)N1 [phenytoin]
- decrease in Km of hydroxylation caused by albumin [7]: 4 fold

Compound: Cc1cn([C@H]2C[C@H](N=[N+]=[N-])[C@@H](CO)O2)c(=O)[nH]c1=O [zidovudine]
- increase in affinity caused by albumin (UGT2B7): 10 fold

Compound: Lucifer yellow [LY]
- increase in maximal LY uptake by BCRP (human BCRP [8]): 28%
- increase in maximal LY uptake by BCRP (human BCRP [8]; listed as Lucifer yellow): 30%
- Vmax in the presence of 0.1% BSA (human BCRP [8]; Vmax in the absence of BSA set at 100%): 127.5 (± 6.2) %
- Km (human BCRP [8]; read-out: Km with 0.1% BSA, 0.1% BSA): 33.5 µM
- Km (human BCRP [8]; read-out: Km without BSA): 31.2 µM
- fu (± SD) ([2]; 0.1% BSA, substrate 20 μM): 0.98 (± 0.01)
- fu (± SD) ([2]; 0.1% BSA, substrate 200 μM): 0.98 (± 0.03)

— PMC5051865, “The Effect of Albumin on MRP2 and BCRP in the Vesicular Transport Assay” (PLoS ONE, 2016)
